In ChEMBL document CHEMBL3228010, “Potential antitumor agents. 29. Quantitative structure-activity relationships for the antileukemic bisquaternary ammonium heterocycles” (J Med Chem, 1979):

What was measured:
L1210 [1] = assay: Antitumor activity against mouse L1210 cells […] in ip dosed C3H X DBA2 F1 hybrid mouse on day 0 and dosed at LD10 level once daily on days 1 to 5 assessed as increase in life span relative to control; type: functional
Mus musculus = assay: Toxicity in ip dosed C3H X DBA2 F1 hybrid mouse […] with mouse L1210 cells on day 0 and dosed once daily on days 1 to 5 measured after 50 days; type: organism-based; conditions: in vivo, 1200 h
L1210 [2] = assay: Antitumor activity against mouse L1210 cells […] in ip dosed C3H X DBA2 F1 hybrid mouse on day 0 and dosed once daily on days 1 to 5 assessed as increase in life span relative to control; type: functional
[3] = Lipophilic-hydrophilic balance, Rm of the compound by partition chromatography; type: physicochemical

Structure (SMILES) | log(ILSmax) (L1210 [1]) | LD10 (Mus musculus) | D40 (L1210 [2]) | Rm [3]
CC[n+]1cccc2ccc(NC(=O)c3ccc(-c4ccc(-c5ccc(-c6ccc(C(=O)Nc7ccc8ccc[n+](CC)c8c7)cc6)cc5)cc4)cc3)cc21.Cc1ccc(S(=O)(=O)[O-])cc1.Cc1ccc(S(=O)(=O)[O-])cc1 | 2.02 | 106 mg/kg | 20.4 mg/kg | 0.08
C[n+]1ccc(Nc2ccc(NC(=O)c3ccc(C(=O)Nc4ccc(C(=O)Nc5ccc[n+](C)c5)cc4)cc3)cc2)cc1.[I-].[I-] | 2.12 | 4.5 mg/kg | 0.5 mg/kg | -0.12
CC[n+]1ccc(Nc2ccc(NC(=O)c3ccc(Nc4cc[n+](CC)c5ccc(N)cc45)cc3)cc2N)cc1.[I-].[I-] | 2.1 | 6.5 mg/kg | 1.5 mg/kg | 0.15
CC[n+]1cccc2cc(NC(=O)c3ccc(NC(=O)c4ccc(C(=O)Nc5ccc6c(ccc[n+]6CC)c5)cc4)cc3)ccc21.Cc1ccc(S(=O)(=O)[O-])cc1.Cc1ccc(S(=O)(=O)[O-])cc1 | 2.05 | 45 mg/kg | 13 mg/kg | -0.52
CC[n+]1cccc(NC(=O)c2ccc(NC(=O)c3ccc(C(=O)Nc4ccc(C(=O)Nc5ccc[n+](CC)c5)cc4)c(N)c3)cc2)c1.Cc1ccc(S(=O)(=O)[O-])cc1.Cc1ccc(S(=O)(=O)[O-])cc1 | 2.13 | 14 mg/kg | 2.4 mg/kg | -0.15
CC[n+]1ccc(Nc2ccc(NC(=O)/C=C/c3ccc(C(=O)Nc4ccc(Nc5cc[n+](CC)cc5)cc4)cc3)cc2)cc1.Cc1ccc(S(=O)(=O)[O-])cc1.Cc1ccc(S(=O)(=O)[O-])cc1 | 2.2 | 8 mg/kg | 1.6 mg/kg | -0.03
CC[n+]1cccc(NC(=O)c2ccc(NC(=O)c3ccc(C(=O)Nc4ccc(C(=O)Nc5ccc[n+](CC)c5)c(OC)c4)cc3)cc2OC)c1.Cc1ccc(S(=O)(=O)[O-])cc1.Cc1ccc(S(=O)(=O)[O-])cc1 | 1.76 | 40 mg/kg | 24 mg/kg | 0.45
CCCC[n+]1cccc2cc(NC(=O)COc3ccc(C(=O)Nc4ccc5c(ccc[n+]5CCCC)c4)cc3)ccc21.Cc1ccc(S(=O)(=O)[O-])cc1.Cc1ccc(S(=O)(=O)[O-])cc1 | 1.96 | 210 mg/kg | 80 mg/kg | 0.41
CCC[n+]1cccc2cc(NC(=O)COc3ccc(C(=O)Nc4ccc5c(ccc[n+]5CCC)c4)cc3)ccc21.Cc1ccc(S(=O)(=O)[O-])cc1.Cc1ccc(S(=O)(=O)[O-])cc1 | 1.59 | 8.3 mg/kg | 6.3 mg/kg | 0.15
CCC[n+]1ccc(-c2ccc(-c3ccc(-c4ccc(NC(=O)c5ccc(C(=O)Nc6ccc(-c7ccc(-c8ccc(-c9cc[n+](CCC)cc9)cc8)cc7)cc6)cc5)cc4)cc3)cc2)cc1.Cc1ccc(S(=O)(=O)[O-])cc1.Cc1ccc(S(=O)(=O)[O-])cc1 | 2.03 | 10 mg/kg | 4.6 mg/kg | 0.46
CCC[n+]1cc(-c2ccc(NC(=O)c3ccc(Nc4cc[n+](CCC)c5ccccc45)cc3)cc2)c(N)nc1N.[I-].[I-] | 1.85 | 40 mg/kg | 15.8 mg/kg | 0.68
CCCC[n+]1cccc(NC(=O)c2ccc(NC(=O)/C=C/c3ccc(C(=O)Nc4ccc(C(=O)Nc5ccc[n+](CCCC)c5)cc4)cc3)cc2)c1.Cc1ccc(S(=O)(=O)[O-])cc1.Cc1ccc(S(=O)(=O)[O-])cc1 | 1.72 | 24 mg/kg | 14 mg/kg | 0.4
CC[n+]1cccc(NC(=O)c2ccc(NC(=O)C34CCC(C(=O)Nc5ccc(C(=O)Nc6ccc[n+](CC)c6)cc5)(CC3)CC4)cc2)c1.Cc1ccc(S(=O)(=O)[O-])cc1.Cc1ccc(S(=O)(=O)[O-])cc1 | 1.65 | 27 mg/kg | 18 mg/kg | 0.59
CC[n+]1cccc(NC(=O)c2ccc(NC(=O)c3ccc(C(=O)Nc4ccc(C(=O)Nc5ccc[n+](CC)c5)cc4)c(Cl)c3)cc2)c1.Cc1ccc(S(=O)(=O)[O-])cc1.Cc1ccc(S(=O)(=O)[O-])cc1 | 1.7 | 29 mg/kg | 22 mg/kg | 0.42
CCC[n+]1cccc2cc(NC(=O)c3ccc(C(=O)Nc4ccc5c(ccc[n+]5CCC)c4)cc3)ccc21.Cc1ccc(S(=O)(=O)[O-])cc1.Cc1ccc(S(=O)(=O)[O-])cc1 | 1.89 | 21 mg/kg | 15 mg/kg | 0.3
CC[n+]1cc(-c2ccc(NC(=O)/C=C/c3ccc(C(=O)Nc4ccc(-c5c[n+](CC)c(N)nc5N)cc4)cc3)cc2)c(N)nc1N.Cc1ccc(S(=O)(=O)[O-])cc1.Cc1ccc(S(=O)(=O)[O-])cc1 | 2.23 | 27 mg/kg | 5.1 mg/kg | -0.35

Structure (SMILES) | log(ILSmax) (L1210 [1]) | LD10 (Mus musculus) | D40 (L1210 [2]) | Rm [3]
CC[n+]1ccc(-c2ccc(-c3ccc(-c4ccc(NC(=O)c5ccc(C(=O)Nc6ccc(-c7ccc(-c8ccc(-c9cc[n+](CC)cc9)cc8)cc7)cc6)cc5)cc4)cc3)cc2)cc1.Cc1ccc(S(=O)(=O)[O-])cc1.Cc1ccc(S(=O)(=O)[O-])cc1 | 2.23 | 14 mg/kg | 1.2 mg/kg | 0.09
CCC[n+]1cc(-c2ccc(NC(=O)c3ccc(C(=O)Nc4ccc(-c5c[n+](CCC)c(N)nc5N)cc4)cc3)cc2)c(N)nc1N.Cc1ccc(S(=O)(=O)[O-])cc1.Cc1ccc(S(=O)(=O)[O-])cc1 | 2.15 | 50 mg/kg | 7 mg/kg | -0.08
CC[n+]1cccc(NC(=O)c2ccc(NC(=O)c3ccc(C(=O)Nc4ccc(C(=O)Nc5ccc[n+](CC)c5)cc4OC)cc3)c(OC)c2)c1.Cc1ccc(S(=O)(=O)[O-])cc1.Cc1ccc(S(=O)(=O)[O-])cc1 | 1.86 | 25 mg/kg | 10.3 mg/kg | -0.15
CC[n+]1cccc(NC(=O)c2ccc(NC(=O)c3cccc(C(=O)Nc4ccc(C(=O)Nc5ccc[n+](CC)c5)cc4)c3)cc2)c1.Cc1ccc(S(=O)(=O)[O-])cc1.Cc1ccc(S(=O)(=O)[O-])cc1 | 1.6 | 12 mg/kg | 12 mg/kg | 0.51
CCCC[n+]1cccc2cc(NC(=O)c3ccc(C(=O)Nc4ccc5c(ccc[n+]5CCCC)c4)nc3)ccc21.Cc1ccc(S(=O)(=O)[O-])cc1.Cc1ccc(S(=O)(=O)[O-])cc1 | 1.87 | 175 mg/kg | 120 mg/kg | 0.31
C[n+]1ccc(Nc2ccc(NC(=O)c3ccc(C(=O)Nc4ccc(C(=O)Nc5ccc[n+](C)c5)cc4)cc3)cc2)cc1.Cc1ccc(S(=O)(=O)[O-])cc1.Cc1ccc(S(=O)(=O)[O-])cc1 | 2.03 | 9 mg/kg | 0.8 mg/kg | 0.07
CC[n+]1cccc2ccc(NC(=O)c3ccc(NC(=O)c4ccc(C(=O)Nc5ccc6ccc[n+](CC)c6c5)cc4)cc3)cc21.Cc1ccc(S(=O)(=O)[O-])cc1.Cc1ccc(S(=O)(=O)[O-])cc1 | 2 | 30 mg/kg | 12 mg/kg | -0.4
CCC[n+]1cccc2cc(NC(=O)c3ccc(NC(=O)c4ccc(C(=O)Nc5ccc6c(ccc[n+]6CCC)c5)cc4)cc3)ccc21.Cc1ccc(S(=O)(=O)[O-])cc1.Cc1ccc(S(=O)(=O)[O-])cc1 | 1.92 | 95 mg/kg | 38 mg/kg | -0.21
CCCC[n+]1cccc(NC(=O)c2ccc(NC(=O)c3ccc(C(=O)Nc4ccc5c(ccc[n+]5CCCC)c4)cc3)cc2)c1.Cc1ccc(S(=O)(=O)[O-])cc1.Cc1ccc(S(=O)(=O)[O-])cc1 | 1.6 | 32 mg/kg | 32 mg/kg | 0.85
CCCCC[n+]1cccc2cc(NC(=O)c3ccc(C(=O)Nc4ccc5c(ccc[n+]5CCCCC)c4)c(N)c3)ccc21.Cc1ccc(S(=O)(=O)[O-])cc1.Cc1ccc(S(=O)(=O)[O-])cc1 | 1.51 | 16 mg/kg | 15 mg/kg | 0.85
CCC[n+]1cccc2cc(NC(=O)c3ccc(C(=O)Nc4ccc5c(ccc[n+]5CCC)c4)nc3)ccc21.Cc1ccc(S(=O)(=O)[O-])cc1.Cc1ccc(S(=O)(=O)[O-])cc1 | 1.51 | 16 mg/kg | 14 mg/kg | 0.05
CCC[n+]1ccc(Nc2ccc(C(=O)Nc3ccc(/C(C)=N/NC(=N)N)cc3)c(N)c2)c2cc(N)ccc21.Cc1ccc(S(=O)(=O)O)cc1.Cc1ccc(S(=O)(=O)[O-])cc1 | 2.2 | 60 mg/kg | 10 mg/kg | 0.07
CC[n+]1cc(-c2ccc(NC(=O)c3ccc(Nc4cc[n+](CC)c5ccc(N)cc45)cc3N)cc2)c(N)nc1N.Cc1ccc(S(=O)(=O)[O-])cc1.Cc1ccc(S(=O)(=O)[O-])cc1 | 2.28 | 100 mg/kg | 8.6 mg/kg | 0.33
CCC[n+]1ccc(Nc2ccc(NC(=O)c3ccc(Nc4cc[n+](CCC)c5ccc(N)cc45)cc3)cc2N)cc1.[I-].[I-] | 1.95 | 10 mg/kg | 3.6 mg/kg | 0.41
CC[n+]1ccc(Nc2ccc(NC(=O)c3ccc(C(=O)Nc4ccc(Nc5cc[n+](CC)cc5)cc4)cc3)cc2)cc1.Cc1ccc(S(=O)(=O)[O-])cc1.Cc1ccc(S(=O)(=O)[O-])cc1 | 2.24 | 2.5 mg/kg | 0.5 mg/kg | 0.46
